Assay results as given in patent US11572475B2, “Carbocyanines for G-quadruplex DNA stabilization and telomerase inhibition” (GEORGIA STATE UNIVERSITY RESEARCH FOUNDATION, INC., priority 2011, dated 2023).

Tests used:
Assay type in all cases: binding
[1] = system: Human Telomere (HT) quadruplex DNA; assay: Thermal melting UV-Vis absorbance, quadruplex DNA; details: for Selectivity for quadruplex over duplex DNA by thermal melting: quadruplex vs duplex; for Change in Thermal Melting Points, Human Telomere (HT), 1:1: ratio 1:1 (R); for Change in Thermal Melting Points, Human Telomere (HT), 2:1: ratio 2:1 (R); for Change in Thermal Melting Points, Human Telomere (HT), 4:1: ratio 4:1 (R); for Change in Thermal Melting Points, Human Telomere (HT), 6:1: ratio 6:1 (R)
Protocol: (§1) Three DNA sequences were used: Human Telomere (HTelo), c-myc, and Duplex (Integrated DNA Technologies, San Diego, Calif.). The sequences are shown below:
The concentration of each DNA sample mixed with MilliQ water was determined by UV-Vis at 260 nm using their extinction coefficients. Quadruplexes from Human Telomere (Tel22) and c-myc were prepared by heating the corresponding oligonucleotides at 90° C. for 5 minutes in a 10 mM Tris/50 mM KCl buffer at pH 7.5 and then cooling to room temperature (to favor the intramolecular folding).
(§2) The buffer used was 10 mM Tris base (Fischer Scientific, Fairlawn, N.J.), 50 mM Potassium Chloride (Fischer Scientific, Fairlawn, N.J.), with the pH adjusted to 7.5 with Hydrochloric Acid (Fischer Scientific, Fairlawn, N.J.).
(§3) DNA folding and unfolding (melting) can be measured using absorbance at a constant wavelength of 260 nm for duplex DNA and 295 nm for quadruplex DNA while the temperature is increased, for example from 25° C. to 95° C. At these wavelengths, the resulting curves decrease in absorbance for quadruplex and increase for duplex DNA. Buffer solution and presence of DNA-binding compounds alter the Tm melting temperature, or midpoint between fully folded and unfolded. An increase in melting temperature in the presence of DNA-binding compounds indicates a stabilizing effect of the compound on the DNA structure.
(§4) The selectivity of a given cyanine for quadruplex DNA can be evaluated using thermal melting. The number in parentheses next to the compound number corresponds to the compound number in Schemes 1 and 2.
(§5) Thermal melting studies were also performed on compounds T4 and T5 (Scheme 2) and ZK-14 and SP-2-36.

[2] = system: Duplex DNA; assay: Thermal melting UV-Vis absorbance, duplex DNA; details: for Change in Thermal Melting Points, Duplex, 1:1: ratio 1:1 (R); for Change in Thermal Melting Points, Duplex, 2:1: ratio 2:1 (R); for Change in Thermal Melting Points, Duplex, 4:1: ratio 4:1 (R); for Change in Thermal Melting Points, Duplex, 6:1: ratio 6:1 (R)
Protocol: as §1, §2, §3, §4, §5

[3] = system: Human Telomere (HT) quadruplex DNA; assay: Fluorescence titration with human telomere quadruplex; details: fluorescence intensity of bound ligand divided by that of free ligand
From the text: (§6) Atoms absorb energy and can emit it as heat (vibrational relaxation), fast light emission (fluorescence), or slow light emission (phosphorescence). Most of the cyanines described herein fluoresce in response to near-infrared wavelengths of light absorption. As the cyanines bind to DNA, π-π stacking and hydrogen bonding is altered leading to a change in fluorescence emission. This change can be measured in direct correlation to DNA binding. In some cases an approximate binding constant can be determined from measuring fluorescence enhancement as DNA is titrated into a solution of fluorescent compound. Fluorescent enhancement, or the maximum emission divided by the minimum emission of the titration (compound saturated with DNA divided by free compound) at a fixed wavelength is useful to compare DNA affinity between a family of compounds.
(§7) A UV-Vis absorbance scan is first conducted to acquire the excitation wavelength. A 5 μM solution of compound in 1 mL, of Tris/K+ buffer is scanned from 800 nm to 200 nm at a rate of 60 nm/min with a 5 nm slit width. All DNAs are diluted in Tris/K+ buffer. The human telomere and c-Myc DNA are annealed into a quadruplex motif by heating at 95° C. in the presence of potassium ions in a hot water bath for approximately five minutes, then allowing the solution to slowly come to room temperature. In a fluorescence cell, an emission scan of 1 μM of compound in 1 mL of Tris Buffer is taken (Varian Cary Eclipse, Walnut Creek, Calif.) with appropriate parameters based on the excitation wavelength, an excitation slit width of 5 nm, and an emission slit width of 5 nm. Then 0.05 μM of DNA is titrated into the solution and scanned under the same conditions after each addition. The solution is titrated to saturation, at which the change in fluorescence intensity is nearly zero.
(§8) Due to the highly stabilized parallel quadruplex structure of c-Myc, thermal melting could not be considered for this sequence. Thus, fluorescence can be used to measure binding affinity towards the two quadruplex structures. […] Fluorescence enhancement, or the fluorescence intensity of the bound ligand divided by that of the free ligand, was considered in evaluating binding.

[4] = system: c-Myc quadruplex DNA; assay: Fluorescence titration with c-Myc quadruplex; details: fluorescence intensity of bound ligand divided by that of free ligand
From the text: as §6, §7, §8

SMILES | Selectivity for quadruplex over duplex DNA by thermal melting [1] | Change in Thermal Melting Points, Human Telomere (HT), 1:1 [1] | Change in Thermal Melting Points, Human Telomere (HT), 2:1 [1] | Change in Thermal Melting Points, Human Telomere (HT), 4:1 [1] | Change in Thermal Melting Points, Human Telomere (HT), 6:1 [1] | Change in Thermal Melting Points, Duplex, 1:1 [2] | Change in Thermal Melting Points, Duplex, 2:1 [2] | Change in Thermal Melting Points, Duplex, 4:1 [2] | Change in Thermal Melting Points, Duplex, 6:1 [2] | Fluorescence Enhancement, HT [3] | Fluorescence Enhancement, c-Myc [4] | Thermal Melting (Δ° C.), Quadruplex DNA, 1:1 ratio [1] | Thermal Melting (Δ° C.), Quadruplex DNA, 1:2 ratio [1] | Thermal Melting (Δ° C.), Quadruplex DNA, 1:4 ratio [1] | Thermal Melting (Δ° C.), Quadruplex DNA, 1:6 ratio [1] | Thermal Melting (Δ° C.), Duplex DNA, 1:1 ratio [2] | Thermal Melting (Δ° C.), Duplex DNA, 1:2 ratio [2] | Thermal Melting (Δ° C.), Duplex DNA, 1:4 ratio [2] | Thermal Melting (Δ° C.), Duplex DNA, 1:6 ratio [2]
CC1(C)C(/C=C/C(Cl)=C/C=C2\N(CCC[N+](C)(C)C)c3ccccc3C2(C)C)=[N+](CCC[N+](C)(C)C)c2ccccc21.[Br-].[Br-].[Br-] [A-20 (42)] | selectively bind to quadruplex DNA with little or no binding to duplex DNA | 2.6 | 6.0 | 12.2 | 13.2 | 0 | 0.9 | 0.9 | 2.8 | 1.74 | 3.58 |  |  |  |  |  |  |  | 
CC1(C)C(=CC=CC2=[N+](CCC[N+](C)(C)C)c3ccc(Cl)cc3C2(C)C)N(CCC[N+](C)(C)C)c2ccc(Cl)cc21.[Br-].[Br-].[Br-] [A-138 (17)] | selectively bind to quadruplex DNA with little or no binding to duplex DNA | 3.0 | 7.0 | 14.6 |  | 0.0 | 0.0 | −1.0 |  | 2.7 | 5.4 |  |  |  |  |  |  |  | 
CC1(C)C(=CC=CC2=[N+](CCC[N+](C)(C)C)c3ccc(S(=O)(=O)[O-])cc3C2(C)C)N(CCC[N+](C)(C)C)c2ccc(S(=O)(=O)[O-])cc21.[Br-] [MH2 (31)] |  | 1.5 | 1.1 | 0.6 | 1.2 |  |  |  |  |  |  |  |  |  |  |  |  |  | 
CC1(C)C(=CC=CC2=[N+](CCC[N+](C)(C)C)c3ccccc3C2(C)C)N(CCC[N+](C)(C)C)c2ccccc21.[Br-].[Br-].[Br-] [MH4 (26)] | selectively bind to quadruplex DNA with little or no binding to duplex DNA | 1.6 | 4.1 | 8.7 | 13.7 | 0 | 0.9 | −0.2 | 1.8 | 1.68 | 7.74 |  |  |  |  |  |  |  | 
CC1(C)C(/C=C/C(=C/C=C2\N(CCC[N+](C)(C)C)c3ccccc3C2(C)C)c2ccncc2)=[N+](CCC[N+](C)(C)C)c2ccccc21 [SP-2-36] |  |  |  |  |  |  |  |  |  |  |  | 0.9 +/− 0.1 °C | 1.4 +/− 0.2 °C | 3.5 +/− 0.8 °C | 4.4 +/− 0.5 °C | 0.2 +/− 0.3 °C | 0.5 +/− 0.5 °C | 0.5 +/− 0.3 °C | 0.6 +/− 0.3 °C
CC1(C)C(/C=C/C(Cl)=C/C=C2\N(CCC[N+](C)(C)C)c3ccc(F)cc3C2(C)C)=[N+](CCC[N+](C)(C)C)c2ccc(F)cc21 [T4] |  |  |  |  |  |  |  |  |  |  |  | 1.6 +/− 0.2 °C | 3.3 +/− 0.4 °C | 8.0 +/− 0.7 °C | 10.7 +/− 0.7 °C | 0.4 +/− 0.4 °C | 0.5 +/− 0.4 °C | 0.9 +/− 0.5 °C | 1.2 +/− 0.7 °C
CC1(C)C(/C=C/C(Br)=C/C=C2\N(CCC[N+](C)(C)C)c3ccc(F)cc3C2(C)C)=[N+](CCC[N+](C)(C)C)c2ccc(F)cc21 [T5] | bind quite strongly to the quadruplex with excellent selectivity |  |  |  |  |  |  |  |  |  |  | 2.7 +/− 0.3 °C | 6.2 +/− 0.4 °C | 13.3 +/− 0.4 °C | 16.9 +/− 0.6 °C | 0.1 +/− 0.2 °C | 0.8 +/− 0.4 °C | 0.8 +/− 0.4 °C | 0.9 +/− 0.4 °C
CCCCn1/c(=C/C=C/C2=[N+](CCC[N+](C)(C)C)c3ccccc3C2(C)C)c2cccc3cccc1c32 [ZK-14] | bind quite strongly to the quadruplex with excellent selectivity |  |  |  |  |  |  |  |  |  |  | 1.9 +/− 0.3 °C | 7.7 +/− 1.1 °C | 20.4 +/− 1.0 °C | 26.0 +/− 0.5 °C | 0.6 +/− 0.1 °C | 0.8 +/− 0.3 °C | 2.7 +/− 0.1 °C | 2.8 +/− 0.3 °C
